These results are taken from PMC5580309, “Molecular-scale features that govern the effects of O-glycosylation on a carbohydrate-binding module” (Chemical Science, 2015).

The data set has as its target T1, thermolysin (Bacillus thermoproteolyticus, UniProt P00800).
T1 sequence (P00800 233-548): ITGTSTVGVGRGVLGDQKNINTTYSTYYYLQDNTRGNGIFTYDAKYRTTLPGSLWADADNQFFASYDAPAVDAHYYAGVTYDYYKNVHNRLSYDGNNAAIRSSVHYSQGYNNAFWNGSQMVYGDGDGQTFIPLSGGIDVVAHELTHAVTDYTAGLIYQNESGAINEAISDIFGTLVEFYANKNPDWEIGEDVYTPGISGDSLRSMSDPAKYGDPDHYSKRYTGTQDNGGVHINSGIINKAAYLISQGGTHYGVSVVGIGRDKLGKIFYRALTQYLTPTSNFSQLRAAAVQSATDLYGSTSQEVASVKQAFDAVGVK
The data set is described as follows: Proteolytic stability: half-life to thermolysin degradation. Conditions: for Change in Half-Life to Thermolysin Degradation: glyco-variant minus its corresponding unglycosylated CBM (e.g. 2-1), *** not used in the correlation plot; for half-life: thermolysin (isolated protease), thermolysin degradation, mean of three trials ± SD, procedures as described previously (ESI ref 18). In kind it is in vitro ADME. How it is done:
All error bars reported are standard deviations of data achieved from three separate trials.
cellulose that were determined in accordance with our procedures as described previously 18.
The results are presented as mean of three trials ± SD. *Denotes an averaged value of four trials

Bridge positions count the residues as written; N and C are the ends. Square brackets hold non-standard residues; d marks the D form. Peptide text beside a SMILES is read from it. * marks the point of attachment. αMan = OC[C@H]1O[C@H](*)[C@@H](O)[C@@H](O)[C@@H]1O

As for `CC[C@H](C)[C@@H]1NC(=O)CNC(=O)CNC(=O)[C@@H](NC(=O)[C@H](CCC(N)=O)NC(=O)CNC(=O)[C@H](Cc2ccc(O)cc2)NC(=O)[C@H](C)NC(=O)[C@H](CO[C@H]2O[C@H](CO)[C@@H](O)[C@H](O)[C@@H]2O)NC(=O)[C@H](CCC(N)=O)NC(=O)[C@@H](N)[C@@H](C)O)CSSC[C@@H]2NC(=O)[C@H]([C@@H](C)O)NC(=O)[C@H]([C@@H](C)O)NC(=O)CNC(=O)[C@H](CO)NC(=O)[C@H](C)NC(=O)[C@H](CSSC[C@@H](C(=O)N[C@@H](CC(C)C)C(=O)O)NC(=O)[C@H](CCC(N)=O)NC(=O)[C@H](CO)NC(=O)[C@H](Cc3ccc(O)cc3)NC(=O)[C@H](Cc3ccc(O)cc3)NC(=O)[C@@H]3CCCN3C(=O)[C@H](CC(N)=O)NC(=O)[C@H](CC(C)C)NC(=O)[C@H](C(C)C)NC(=O)[C@H](CCC(N)=O)NC2=O)NC(=O)[C@H](C(C)C)NC(=O)[C@H]([C@@H](C)O)NC(=O)[C@@H]2CCCN2C(=O)CNC(=O)[C@H](CO)NC(=O)[C@H](Cc2ccc(O)cc2)NC(=O)CNC1=O` [CBM variant 9] (H-TQS(αMan)AYGQCGGIGYSGPTVCASGTTCQVLNPYYSQCL-OH; disulfide 8-25, 19-35), the “Change in Half-Life to Thermolysin Degradation” value (from here on “Change in Half-Life”) was found to be 25.8 min and the half-life is 39 ± 3 min. Compound `CC[C@H](C)[C@@H]1NC(=O)CNC(=O)CNC(=O)[C@@H](NC(=O)[C@H](CCC(N)=O)NC(=O)CNC(=O)[C@H](C)NC(=O)[C@H](Cc2c[nH]cn2)NC(=O)[C@H](CO)NC(=O)[C@H](CCC(N)=O)NC(=O)[C@@H](N)[C@@H](C)O)CSSC[C@@H]2NC(=O)[C@H]([C@@H](C)O)NC(=O)[C@H]([C@@H](C)O)NC(=O)CNC(=O)[C@H](CO)NC(=O)[C@H](C)NC(=O)[C@H](CSSC[C@@H](C(=O)N[C@@H](CC(C)C)C(=O)O)NC(=O)[C@H](CCC(N)=O)NC(=O)[C@H](CO)NC(=O)[C@H](Cc3ccc(O)cc3)NC(=O)[C@H](Cc3ccc(O)cc3)NC(=O)[C@@H]3CCCN3C(=O)[C@H](CC(N)=O)NC(=O)[C@H](CC(C)C)NC(=O)[C@H](C(C)C)NC(=O)[C@H](CCC(N)=O)NC2=O)NC(=O)[C@H](C(C)C)NC(=O)[C@H]([C@@H](C)O)NC(=O)[C@@H]2CCCN2C(=O)CNC(=O)[C@H](CO)NC(=O)[C@H](Cc2ccc(O)cc2)NC(=O)CNC1=O` [CBM variant 10] (H-TQSHAGQCGGIGYSGPTVCASGTTCQVLNPYYSQCL-OH; disulfide 8-25, 19-35) gave a half-life of 4.8 ± 1.2 min. Regarding `CC[C@H](C)[C@@H]1NC(=O)CNC(=O)CNC(=O)[C@@H](NC(=O)[C@H](CCC(N)=O)NC(=O)CNC(=O)[C@H](C)NC(=O)[C@H](Cc2c[nH]cn2)NC(=O)[C@H](CO[C@H]2O[C@H](CO)[C@@H](O)[C@H](O)[C@@H]2O)NC(=O)[C@H](CCC(N)=O)NC(=O)[C@@H](N)[C@@H](C)O)CSSC[C@@H]2NC(=O)[C@H]([C@@H](C)O)NC(=O)[C@H]([C@@H](C)O)NC(=O)CNC(=O)[C@H](CO)NC(=O)[C@H](C)NC(=O)[C@H](CSSC[C@@H](C(=O)N[C@@H](CC(C)C)C(=O)O)NC(=O)[C@H](CCC(N)=O)NC(=O)[C@H](CO)NC(=O)[C@H](Cc3ccc(O)cc3)NC(=O)[C@H](Cc3ccc(O)cc3)NC(=O)[C@@H]3CCCN3C(=O)[C@H](CC(N)=O)NC(=O)[C@H](CC(C)C)NC(=O)[C@H](C(C)C)NC(=O)[C@H](CCC(N)=O)NC2=O)NC(=O)[C@H](C(C)C)NC(=O)[C@H]([C@@H](C)O)NC(=O)[C@@H]2CCCN2C(=O)CNC(=O)[C@H](CO)NC(=O)[C@H](Cc2ccc(O)cc2)NC(=O)CNC1=O` [CBM variant 11] (H-TQS(αMan)HAGQCGGIGYSGPTVCASGTTCQVLNPYYSQCL-OH; disulfide 8-25, 19-35), the “Change in Half-Life” value was found to be 6 min and the half-life is 10.8 ± 1.8 min. The compound `CC[C@H](C)[C@@H]1NC(=O)CNC(=O)CNC(=O)[C@@H](NC(=O)[C@H](CCC(N)=O)NC(=O)CNC(=O)[C@H](Cc2ccc(O)cc2)NC(=O)[C@H](Cc2c[nH]cn2)NC(=O)[C@@H](NC(=O)[C@H](CCC(N)=O)NC(=O)[C@@H](N)[C@@H](C)O)[C@@H](C)O)CSSC[C@@H]2NC(=O)[C@H]([C@@H](C)O)NC(=O)[C@H]([C@@H](C)O)NC(=O)CNC(=O)[C@H](CO)NC(=O)[C@H](C)NC(=O)[C@H](CSSC[C@@H](C(=O)N[C@@H](CC(C)C)C(=O)O)NC(=O)[C@H](CCC(N)=O)NC(=O)[C@H](CO)NC(=O)[C@H](Cc3ccc(O)cc3)NC(=O)[C@H](Cc3ccc(O)cc3)NC(=O)[C@@H]3CCCN3C(=O)[C@H](CC(N)=O)NC(=O)[C@H](CC(C)C)NC(=O)[C@H](C(C)C)NC(=O)[C@H](CCC(N)=O)NC2=O)NC(=O)[C@H](C(C)C)NC(=O)[C@H]([C@@H](C)O)NC(=O)[C@@H]2CCCN2C(=O)CNC(=O)[C@H](CO)NC(=O)[C@H](Cc2ccc(O)cc2)NC(=O)CNC1=O` [CBM variant 12] (H-TQTHYGQCGGIGYSGPTVCASGTTCQVLNPYYSQCL-OH; disulfide 8-25, 19-35) had a half-life of 21.6 ± 1.2 min. `CC[C@H](C)[C@@H]1NC(=O)CNC(=O)CNC(=O)[C@@H](NC(=O)[C@H](CCC(N)=O)NC(=O)CNC(=O)[C@H](Cc2ccc(O)cc2)NC(=O)[C@H](Cc2c[nH]cn2)NC(=O)[C@@H](NC(=O)[C@H](CCC(N)=O)NC(=O)[C@@H](N)[C@@H](C)O)[C@@H](C)O[C@H]2O[C@H](CO)[C@@H](O)[C@H](O)[C@@H]2O)CSSC[C@@H]2NC(=O)[C@H]([C@@H](C)O)NC(=O)[C@H]([C@@H](C)O)NC(=O)CNC(=O)[C@H](CO)NC(=O)[C@H](C)NC(=O)[C@H](CSSC[C@@H](C(=O)N[C@@H](CC(C)C)C(=O)O)NC(=O)[C@H](CCC(N)=O)NC(=O)[C@H](CO)NC(=O)[C@H](Cc3ccc(O)cc3)NC(=O)[C@H](Cc3ccc(O)cc3)NC(=O)[C@@H]3CCCN3C(=O)[C@H](CC(N)=O)NC(=O)[C@H](CC(C)C)NC(=O)[C@H](C(C)C)NC(=O)[C@H](CCC(N)=O)NC2=O)NC(=O)[C@H](C(C)C)NC(=O)[C@H]([C@@H](C)O)NC(=O)[C@@H]2CCCN2C(=O)CNC(=O)[C@H](CO)NC(=O)[C@H](Cc2ccc(O)cc2)NC(=O)CNC1=O` [CBM variant 13] (H-TQT(αMan)HYGQCGGIGYSGPTVCASGTTCQVLNPYYSQCL-OH; disulfide 8-25, 19-35): the “Change in Half-Life” value is 46.8 min and the half-life is 68.4 ± 10.8 min. As for `CC[C@H](C)[C@@H]1NC(=O)CNC(=O)CNC(=O)[C@@H](NC(=O)[C@H](CCC(N)=O)NC(=O)CNC(=O)[C@H](Cc2ccc(O)cc2)NC(=O)[C@H](Cc2c[nH]cn2)NC(=O)[C@H](CS)NC(=O)[C@H](CCC(N)=O)NC(=O)[C@@H](N)[C@@H](C)O)CSSC[C@@H]2NC(=O)[C@H]([C@@H](C)O)NC(=O)[C@H]([C@@H](C)O)NC(=O)CNC(=O)[C@H](CO)NC(=O)[C@H](C)NC(=O)[C@H](CSSC[C@@H](C(=O)N[C@@H](CC(C)C)C(=O)O)NC(=O)[C@H](CCC(N)=O)NC(=O)[C@H](CO)NC(=O)[C@H](Cc3ccc(O)cc3)NC(=O)[C@H](Cc3ccc(O)cc3)NC(=O)[C@@H]3CCCN3C(=O)[C@H](CC(N)=O)NC(=O)[C@H](CC(C)C)NC(=O)[C@H](C(C)C)NC(=O)[C@H](CCC(N)=O)NC2=O)NC(=O)[C@H](C(C)C)NC(=O)[C@H]([C@@H](C)O)NC(=O)[C@@H]2CCCN2C(=O)CNC(=O)[C@H](CO)NC(=O)[C@H](Cc2ccc(O)cc2)NC(=O)CNC1=O` [CBM variant 14] (H-TQCHYGQCGGIGYSGPTVCASGTTCQVLNPYYSQCL-OH; disulfide 8-25, 19-35), the half-life is 10.8 ± 2.4 min. As for `CC[C@H](C)[C@@H]1NC(=O)CNC(=O)CNC(=O)[C@@H](NC(=O)[C@H](CCC(N)=O)NC(=O)CNC(=O)[C@H](Cc2ccc(O)cc2)NC(=O)[C@H](Cc2c[nH]cn2)NC(=O)[C@H](CS[C@H]2O[C@H](CO)[C@@H](O)[C@H](O)[C@@H]2O)NC(=O)[C@H](CCC(N)=O)NC(=O)[C@@H](N)[C@@H](C)O)CSSC[C@@H]2NC(=O)[C@H]([C@@H](C)O)NC(=O)[C@H]([C@@H](C)O)NC(=O)CNC(=O)[C@H](CO)NC(=O)[C@H](C)NC(=O)[C@H](CSSC[C@@H](C(=O)N[C@@H](CC(C)C)C(=O)O)NC(=O)[C@H](CCC(N)=O)NC(=O)[C@H](CO)NC(=O)[C@H](Cc3ccc(O)cc3)NC(=O)[C@H](Cc3ccc(O)cc3)NC(=O)[C@@H]3CCCN3C(=O)[C@H](CC(N)=O)NC(=O)[C@H](CC(C)C)NC(=O)[C@H](C(C)C)NC(=O)[C@H](CCC(N)=O)NC2=O)NC(=O)[C@H](C(C)C)NC(=O)[C@H]([C@@H](C)O)NC(=O)[C@@H]2CCCN2C(=O)CNC(=O)[C@H](CO)NC(=O)[C@H](Cc2ccc(O)cc2)NC(=O)CNC1=O` [CBM variant 15] (H-TQC(αMan)HYGQCGGIGYSGPTVCASGTTCQVLNPYYSQCL-OH; disulfide 8-25, 19-35), the “Change in Half-Life” value was 1.2 min and the half-life was 12 ± 1.8 min. For `CC[C@H](C)[C@@H]1NC(=O)CNC(=O)CNC(=O)[C@@H](NC(=O)[C@H](CCC(N)=O)NC(=O)CNC(=O)[C@H](Cc2ccc(O)cc2)NC(=O)[C@H](Cc2c[nH]cn2)NC(=O)[C@@H](CO)NC(=O)[C@H](CCC(N)=O)NC(=O)[C@@H](N)[C@@H](C)O)CSSC[C@@H]2NC(=O)[C@H]([C@@H](C)O)NC(=O)[C@H]([C@@H](C)O)NC(=O)CNC(=O)[C@H](CO)NC(=O)[C@H](C)NC(=O)[C@H](CSSC[C@@H](C(=O)N[C@@H](CC(C)C)C(=O)O)NC(=O)[C@H](CCC(N)=O)NC(=O)[C@H](CO)NC(=O)[C@H](Cc3ccc(O)cc3)NC(=O)[C@H](Cc3ccc(O)cc3)NC(=O)[C@@H]3CCCN3C(=O)[C@H](CC(N)=O)NC(=O)[C@H](CC(C)C)NC(=O)[C@H](C(C)C)NC(=O)[C@H](CCC(N)=O)NC2=O)NC(=O)[C@H](C(C)C)NC(=O)[C@H]([C@@H](C)O)NC(=O)[C@@H]2CCCN2C(=O)CNC(=O)[C@H](CO)NC(=O)[C@H](Cc2ccc(O)cc2)NC(=O)CNC1=O` [CBM variant 16] (H-TQ[dS]HYGQCGGIGYSGPTVCASGTTCQVLNPYYSQCL-OH; disulfide 8-25, 19-35), the half-life is 11.4 ± 2.4 min.

For orientation: half-life means the time in which the quantity being followed falls by half. Low values mean fast loss, high ones slow loss.
